Measured values from paper PMC6813295, “A tumour-selective cascade activatable self-detained system for drug delivery and cancer imaging” (Nature Communications, 2019).
Where a SMILES comes first, the peptide text is derived from it. The star is where a group is joined. X1 = CC1(C)C(=CC=C2CCCC(C=CC3=[N+](CCCCCC(=O)O)c4ccccc4C3(C)C)=C2*)N(CCCCCC(=O)O)c2ccccc21

What was measured:
[1] = test system: H460 and 293T cells; assay: Confocal imaging of accumulation and retention in cells, H460 versus 293T; assay type: cell-based, human; settings: 50 μM for 1 h, washed, at 6 h (maximum difference), cytoplasm, n = 15
Procedure: Fig. 3 Recognition and self-assembly of molecule 1 in cells. a Western blots of XIAP expression in H460 and 293T cells. b Confocal images of H460 cells treated with or without energy-dependent inhibitor (oligomycin A, 20 μM) for 1 h, and followed by washing with PBS and treated with the molecule 1 (50 μM) for 1 h. c Statistical analysis of average fluorescence intensities in the cytoplasm of H460 cells from confocal images. Data are presented as the mean ± s.d. (n = 100). ***p < 0.001, p values were performed with one-way ANOVA followed by post hoc Tukey’s test for the indicated comparison. d Confocal images of time-dependent monitoring of H460 and 293T cells treated with the molecule 1 (50 μM) for 1 h followed by washing with PBS and replacing the medium and a further incubation up to 48 h. e Statistical analysis of average fluorescence intensities in the cytoplasm of H460 and 293T cells from confocal images with a timescale range of 1–48 h. Data are presented as the mean ± s.d. […] Finally, incubate up to 6 h and imaging by confocal microscope. g Schematic diagram illustrates the process of NBD fluorescence illumination. h Confocal images of H460 cells treatment with molecule 1-NBD (50 μM) for 1 h. i TEM images of ultrathin section of H460 cells treated with molecule I-1 (50 μM) and without the molecule I-1 for up to 12 h. […]

[2] = test system: human bladder tumour tissues; assay: Ex vivo NIR imaging of human intact bladder after intravesical instillation; settings: 70 mL of 50 μM in PBS pH 7.4 instilled, 37 °C, 1 h
Procedure: After obtaining approval from the institutional review board of the Fourth Hospital of Harbin Medical University, patients with urothelial carcinoma were scheduled for radical cystectomy and appropriate informed consent was obtained. Fresh intact bladder was obtained from the operating room immediately after radical cystectomy and irrigated three times for 5 min via an 18-French (Fr) urinary catheter with sterile saline, and 70 mL of molecule 1 in PBS (50 μM, pH 7.4) was instilled and incubated at 37 °C for 1 h. Then, the unbound molecule 1 was removed by irrigating with sterile saline three times for 5 min, the bladder was opened longitudinally on the anterior wall. Ex vivo fluorescent and white light imaging of the bladder cancer was performed using a near infrared imaging system. To explore the correlation between appearance of fluorescent signal and cancer lesions, standard pathological analysis of represented fluorescent spots were carried out after imaging.

[3] = test system: healthy female Balb/c nude mice; assay: Toxicology evaluation (blood biochemistry, haematology, histology); assay type: in vivo, mouse; settings: 14 mg/kg
Procedure: The healthy female Balb/c nude mice (6–8 weeks, n = 3) treated with molecule 1 was systematically investigated over 15 days. The mice were sacrificed after treatment with molecule 1 at a dose of 14 mg/kg on the 3rd, 7th and 15th day for blood collection. The blood biochemistry and haematology analyses were performed by Vital River Laboratory Animal Technology Co. Ltd. The histology evaluation was performed by Servicebio. All the toxicology evaluation was carried out in blind manner. […]
mg/kg, n=3) at 3, 7 and 15 d. The control group was healthy mice group without treatment. a, As major indicators of liver function, alanine aminotransferase (ALT), alkaline phosphatase (ALP) and aspartate aminotransferase (AST) levels were evaluated at different time point s. b, Total Protein (TP), albumin (ALB) and globulin (GLO) concentration and A/G (ALB/GLO) levels were evaluated at different time points. c, The creatinine (CRE) and blood urea nitrogen (BUN) levels, important indicators of kidney function, were evaluated at different time points. d, Time-course changes of haematology data, including i) white blood cells, ii) red blood cells, iii) haemoglobin, iv) mean corpuscular volume, v) mean corpuscular haemoglobin, vi) mean corpuscular haemoglobin concentration, vii) platelets and viii) haematocrit after treated with molecule 1 (14 mg/kg) treatment comparing with normal range (green backgrounds). Data are presented as mean ± s.d.
(n=3). e, Histology evaluation of the major organs (liver, spleen, kidney, heart and lung) were collected from the control group without treatment and molecule 1 treated (12 h post injection) group. Scale bars, 100 μm.

Compound: CC[C@H](C)[C@H](NC(=O)[C@@H]1CCCN1C(=O)[C@@H](NC(=O)[C@H](C)N)C(C)C)C(=O)N[C@@H](C)C(=O)N[C@@H](CCC(N)=O)C(=O)N[C@@H](CCCCN)C(=O)N[C@@H](CC(=O)O)C(=O)N[C@@H](CCC(=O)O)C(=O)N[C@H](C(=O)N[C@@H](CC(=O)O)C(=O)N[C@@H](CCCCN)C(=O)N[C@@H](CC(C)C)C(=O)N[C@H](C(=O)N[C@@H](Cc1ccccc1)C(=O)N[C@@H](Cc1ccccc1)C(=O)N[C@@H](C)C(=O)N[C@@H](CCC(=O)O)C(=O)N[C@@H](CSC1=C(C=CC2=[N+](CCCCCC(=O)O)c3ccccc3C2(C)C)CCCC1=CC=C1N(CCCCCC(=O)O)c2ccccc2C1(C)C)C(=O)NCC(=O)O)C(C)C)C(C)C [molecule 1] (H-AVPIAQKDEVDKLVFFAEC(X1)G-OH)
- fluorescent intensity in H460 cells relative to 293T cells [1]: fivefold higher
- signal-to-noise ratio of the tumour area versus surrounding normal tissue [2]: up to 2.7 times
- histology evaluation of organs [3]: slightly enlarged splenic corpuscle and expanded germinal centres
- signs of acute toxicity within 15 days [3]: did not notice any obvious signs of acute toxicity
- creatinine (CRE) and blood urea nitrogen (BUN) levels ([3]; days 3, 7 and 15, n = 3): within the normal range
- liver function markers (ALT, AST, ALP, albumin concentration) ([3]; days 3, 7 and 15, n = 3): within reference normal ranges
